Data set [1] has as its system intestinal resorption of cholesterol. Put plainly: inhibition of the intestinal resorption of cholesterol in squirrel monkeys (CHORES). Format: in vivo. The settings on record: 100 μmol/kg p.o., [26-^14 C]-cholesterol in feed, faeces collected 2.5 days, % of control values determined prior to medication. The source says: Squirrel monkeys are orally administered the substances to be investigated together with a feed containing a protein, starch, triolein and [26-^14 C]-cholesterol. Thereupon, the faeces is collected for 2.5 days. The difference between the administered and the excreted radioactive cholesterol determined in the faeces is taken as the measurement of resorbed cholesterol. The cholesterol resorption (CHORES) is expressed in percentages of the control values determined prior to the medication.
(§1) The results which have been obtained with some representative products in accordance with the invention are reproduced in the Table hereinafter. There are given for each of the compounds indicated therein the dosage administered (in μmol/kg p.o.) as well as in each case the cholesterol resorption (CHORES) determined in percentages of the cholesterol resorption in the pre-period. Moreover, the Table contains data concerning the acute toxicity of the compounds investigated (LD50 in mg/kg in the case of single oral administration to mice).

Data set [2] in a line: acute toxicity, single oral administration to mice. The conditions noted are these: mouse, in vivo; single oral administration (p.o.) to mice.
Text: as §1

The term LD50 denotes the dose expected to kill half of the subjects tested.

With `CC(C)CCC[C@@H](C)[C@H]1CC[C@H]2[C@@H]3CC[C@H]4C[C@@H](OP(=O)([O-])OCC[N+](C)(C)C)CC[C@]4(C)[C@H]3CC[C@]12C` [3β-Cholestanyloxy-phosphorylcholine], in data set [1], the “CHORES in % of the pre-period (cholesterol resorption)” value (shortened to “CHORES in % of the pre-period”) turned out to be 26%. Moreover, the LD50 in data set [2] worked out at 5000 mg/kg.
For the compound `CC[C@H](CC[C@@H](C)[C@H]1CC[C@H]2[C@@H]3CC[C@H]4C[C@@H](OP(=O)([O-])OCC[N+](C)(C)C)CC[C@]4(C)[C@H]3CC[C@]12C)C(C)C` [3β-Stigmastanyloxy-phosphorylcholine, 3β-stigmastanyloxy-phosphorylcholine], the “CHORES in % of the pre-period” value in data set [1] is 36%. The compound further returned an LD50 in data set [2] of 4000 mg/kg.
For `CC[C@H](CC[C@@H](C)[C@H]1CC[C@H]2[C@@H]3CC=C4C[C@@H](OP(=O)([O-])OCC[N+](C)(C)C)CC[C@]4(C)[C@H]3CC[C@]12C)C(C)C` [Stigmast-5-en-3β-yloxy-phosphorylcholine], the “CHORES in % of the pre-period” value in data set [1] is listed as 52%. The compound also returned an LD50 in data set [2] of 5000 mg/kg.
Take `CC[C@H](/C=C/[C@@H](C)[C@H]1CC[C@H]2[C@@H]3CC=C4C[C@@H](OP(=O)([O-])OCC[N+](C)(C)C)CC[C@]4(C)[C@H]3CC[C@]12C)C(C)C` [Stigmasta-5,22-dien-3β-yloxy-phosphorylcholine]: the “CHORES in % of the pre-period” value in data set [1] came to 33%. The LD50 in data set [2] was determined as 5000 mg/kg.

These data come from patent US4680290A, “Steroids for the treatment of hypercholesterolemia” (Hoffmann-La Roche Inc., priority 1983, dated 1987).
